Columns and labels:
Mus musculus [1] = experiment: Antihypoxic effect tested by the ratio of survival time (SVT) of test mice to that of control group, dosed orally 30 mg/kg; format: functional; conditions: route oral
Mus musculus [2] = experiment: Time of recovery of righting reflux (RRT) in seconds was measured after oral administration of 30 mg/kg in mice for the promotional effect on recovery from coma.; format: functional
Mus musculus [3] = experiment: Spontaneous movement (SMT) in seconds, was measured after oral administration of 30 mg/kg in mice to test for promoting effects on recovery from coma.; format: functional
Mus musculus [4] = experiment: Antihypoxic effect tested by the ratio of survival time (SVT) of test mice to that of control group, dosed intraperitoneally at 30 mg/kg; format: functional; conditions: route intraperitoneal
Mus musculus [5] = experiment: Antihypoxic effect by the survival time (SVT) in mice at a dose of 30 mg/kg administered intraperitoneally.; format: functional; conditions: route intraperitoneal
Mus musculus [6] = experiment: Antihypoxic effect by the ratio of survival time (SVT) of test mice to that of control group at a dose of 30 mg/kg administered subcutaneously.; format: functional; conditions: route subcutaneous
Mus musculus [7] = experiment: Time of recovery of spontaneous movement (SMT) in seconds was measured after administration of 100 mg/kg orally in mice for the promotional effect on recovery from coma.; format: functional
Mus musculus [8] = experiment: Antihypoxic effect by the ratio of survival time (SVT) of test mice to that of control group at a dose of 100 mg/kg administered intraperitoneally.; format: functional
Mus musculus [9] = experiment: Time of recovery of righting reflux (RRT) in seconds was measured after administration of 100 mg/kg orally in mice for the promotional effect on recovery from coma.; format: functional
Mus musculus [10] = experiment: Antihypoxic effect by the ratio of survival time (SVT) of test mice to that of control group at a dose of 100 mg/kg administered orally.; format: functional, organism-based; parameters: dose 100 mg/kg

Row | Compound | SVT (Mus musculus [1]) | RRT (Mus musculus [2]) | SMT (Mus musculus [3]) | SVT (Mus musculus [4]) | further results
1 | COc1cccc(N2CCN(CC(=O)NC3CCc4c(C)cc(C)c(O)c43)CC2)c1 (stereo not given) | 77.2% | 64.2 s | 54.7 s | – | –
2 | CCC(C)c1cc(C)c2c(c1O)C(NC(=O)CN1CCN(c3cccc(C)c3)CC1)CC2 (stereo not given) | 110.5% | 91.9 s | 125.1 s | 172.2% | –
3 | Cc1cc(C)c2c(c1O)C(NC(=O)CN1CCN(c3cc(Cl)ccc3Cl)CC1)C(C)(C)C2 (stereo not given) | 100% | 73.6 s | 69.4 s | – | –
4 | CCC(C)c1cc(C)c2c(c1O)C(NC(=O)CN1CCN(c3cc(Cl)cc(Cl)c3)CC1)CC2 (stereo not given) | 113.2% | 114 s | 100.6 s | 139.4% | –
5 | Cc1cc(C)c2c(c1O)C(NC(=O)CN1CCN(c3cccc(Cl)c3)CC1)C(c1ccc(Cl)cc1)C2 (stereo not given) | 81.3% | 98 s | 99.4 s | – | –
6 | CCOc1ccccc1N1CCN(CC(=O)NC2c3c(O)c(C)cc(C)c3CC2(C)C)CC1 (stereo not given) | 130.4% | 90.3 s | 71.8 s | – | –
7 | Cc1cc(C)c2c(c1O)C(NC(=O)CCl)CC2 (stereo not given) | – | – | – | – | SVT (Mus musculus [5]): 116.4%
8 | COc1ccccc1N1CCN(CC(=O)NC2c3c(O)c(C)cc(C)c3CC2(C)C)CC1 (stereo not given) | 94.4% | 97.2 s | 117.3 s | – | –
9 | Cc1cc(C)c2c(c1O)C(NC(=O)CN1CCN(c3ccc([N+](=O)[O-])cc3)CC1)C(C)(C)C2 (stereo not given) | 107.9% | 99.5 s | 90.6 s | – | –
10 | Cc1ccc(C(=O)NC2CCc3c(C)cc(C)c(O)c32)cc1 (stereo not given) | – | – | – | 68.8% | –
11 | Cc1cc(C)c2c(c1O)C(NC(=O)CN1CCN(c3cccc(F)c3)CC1)C(C)(C)C2 (stereo not given) | 122.7% | 82.8 s | 72.3 s | – | –
12 | CCC(C)c1cc(C)c2c(c1O)C(NC(=O)CN1CCN(c3ccccc3)CC1)CC2 (stereo not given) | 85.9% | 80.3 s | 78.2 s | 89.3% | –
13 | Cc1cc(C)c2c(c1O)C(NC(=O)CN1CCN(c3ccc(Cl)c(Cl)c3)CC1)C(C)(C)C2 (stereo not given) | 100.1% | 93.2 s | 108.2 s | – | –
14 | Cc1cc(C)c2c(c1O)C(NC(=O)CN1CCN(c3ccccc3F)CC1)C(C)(C)C2 (stereo not given) | 99.9% | 89 s | 123.8 s | – | –
15 | Cc1cc(C)c2c(c1O)C(NCC(=O)N1CCN(c3cccc(Cl)c3)CC1)C(C)(C)C2 (stereo not given) | – | 116.3 s | 95.2 s | 146.8% | –
16 | COc1cccc(N2CCN(CC(=O)NC3c4c(O)c(C)cc(C)c4CC3c3ccc(Cl)cc3)CC2)c1 (stereo not given) | 91.7% | 80.1 s | 94.3 s | – | –
17 | Cc1cc(C)c2c(c1O)C(NC(=O)CN1CCOCC1)C(C)(C)C2 (stereo not given) | – | 106.9 s | 92.2 s | 104.3% | –
18 | Cc1ccccc1C1Cc2c(C)cc(C)c(O)c2C1NC(=O)CN1CCN(c2cccc(Cl)c2)CC1 (stereo not given) | 123.7% | 75.1 s | 66 s | – | –
19 | CCC(C)c1cc(C)c2c(c1O)C(NC(=O)CN1CCN(c3cccc(Cl)c3)CC1)C(C)(C)C2 (stereo not given) | – | 99.4 s | 80.3 s | 147.7% | –
20 | Cc1cccc(N2CCN(CC(=O)NC3CCc4c(C)cc(C)c(O)c43)CC2)c1C (stereo not given) | – | – | – | 134.3% | –
21 | CCC(C)c1cc(C)c2c(c1O)C(N)CC2 (stereo not given) | 166.5% | 44.2 s | 48.9 s | – | SVT (Mus musculus [6]): 276.5%
22 | Cc1cc(C)c2c(c1O)C(NC(=O)CN1CCCCC1)C(C)(C)C2 (stereo not given) | – | 100.7 s | 84.2 s | 112.7% | –
23 | COc1cccc(N2CCN(CC(=O)NC3c4c(O)c(C)cc(C)c4CC3c3ccccc3)CC2)c1 (stereo not given) | 78.3% | 82 s | 80.6 s | – | –
24 | COc1ccc(N2CCN(CC(=O)NC3c4c(O)c(C)cc(C)c4CC3(C)C)CC2)cc1OC (stereo not given) | 85.7% | 59.5 s | 81 s | – | –
25 | Cc1cc(C)c2c(c1O)C(N)C(c1ccccc1)C2 (stereo not given) | 114.1% | 34.3 s | 28.9 s | 185.7% | –
26 | VITAMIN E | – | – | – | – | SMT (Mus musculus [7]): 83.5 s; SVT (Mus musculus [8]): 96.7%; RRT (Mus musculus [9]): 92.2 s; SVT (Mus musculus [10]): 178%
27 | Cc1cc(C)c2c(c1O)C(NC(=O)CN1CCCC1C(=O)O)C(C)(C)C2 (stereo not given) | 92.3% | 103.3 s | 150.3 s | – | –
28 | CCCc1cc(C)c2c(c1O)C(NC(=O)CN1CCN(c3cccc(OC)c3)CC1)C(C)(C)C2 (stereo not given) | 95% | 114.6 s | 107.2 s | – | –

Row | Compound | SVT (Mus musculus [1]) | RRT (Mus musculus [2]) | SMT (Mus musculus [3]) | SVT (Mus musculus [4]) | further results
29 | COc1cccc(N2CCN(CC(=O)NC3c4c(O)ccc(C)c4CC3(C)C)CC2)c1 (stereo not given) | 97.2% | 62.9 s | 64.7 s | – | –
30 | COc1ccc(N2CCN(CC(=O)NC3c4c(O)c(C)cc(C)c4CC3(C)C)CC2)cc1 (stereo not given) | 100.6% | 82.3 s | 63.1 s | – | –
31 | Cc1cc(C)c2c(c1O)C(NC(=O)CN1CCN(c3cc(Cl)cc(Cl)c3)CC1)C(C)(C)C2 (stereo not given) | 106.4% | 76.1 s | 71.1 s | – | –
32 | CCC(C)c1cc(C)c2c(c1O)C(NC(=O)CN1CCN(c3cccc(OC)c3)CC1)CC2 (stereo not given) | 162.3% | 99.1 s | 103.5 s | 218.5% | –
33 | Cc1cc(C)c2c(c1O)C(NC(=O)CN1CCN(c3ccccc3Cl)CC1)C(C)(C)C2 (stereo not given) | 117.3% | 86.5 s | 77.2 s | – | –
34 | COc1cccc(N2CCN(CC(=O)NC3c4c(c(C)cc(C)c4OC)CC3(C)C)CC2)c1 (stereo not given) | 93.4% | 72.6 s | 61.8 s | – | –
35 | Cc1ccc(Cl)cc1N1CCN(CC(=O)NC2c3c(O)c(C)cc(C)c3CC2(C)C)CC1 (stereo not given) | 103.2% | 91.7 s | 74 s | – | –
36 | Cc1cc(C)c(N2CCN(CC(=O)NC3c4c(O)c(C)cc(C)c4CC3(C)C)CC2)c(C)c1 (stereo not given) | 100.3% | 87.6 s | 84 s | – | –
37 | Cc1cc(C)c2c(c1O)C(NC(=O)CN1CCN(c3ccc(F)cc3)CC1)C(C)(C)C2 (stereo not given) | 96.2% | 110.5 s | 121.4 s | – | –
38 | CCC(C)c1cc(C)c2c(c1O)C(NC(=O)CN1CCN(c3cccc(Cl)c3Cl)CC1)CC2 (stereo not given) | 119.2% | 98 s | 117.4 s | 122.4% | –
39 | Cc1cc(C)c2c(c1O)C(NC(=O)CN1CCN(c3cccc(Br)c3)CC1)C(C)(C)C2 (stereo not given) | 83.2% | 81.8 s | 91 s | – | –
40 | Cc1cc(C)c2c(c1O)C(NC(=O)CCN1CCN(c3cccc(Cl)c3)CC1)C(C)(C)C2 (stereo not given) | – | 95.4 s | 74 s | 79.5% | –
41 | Cc1cc(C)c2c(c1O)C(NC(=O)CN1CCN(c3cccc(C(F)(F)F)c3)CC1)C(C)(C)C2 (stereo not given) | 107.8% | 89.5 s | 83.7 s | – | –
42 | Cc1cc(C)c2c(c1O)C(NC(=O)CN1CCN(c3cccc(Cl)c3Cl)CC1)C(C)(C)C2 (stereo not given) | 94.6% | 99.2 s | 126.6 s | – | –
43 | COc1cccc(N2CCN(CCNC3c4c(O)c(C)cc(C)c4CC3(C)C)CC2)c1 (stereo not given) | – | 110 s | 112.1 s | 120.8% | –
44 | Cc1cc(C)c2c(c1O)C(NC(=O)CN1CCN(c3cccc(Cl)c3)CC1)C(C)(C)C2 (stereo not given) | 147.9% | 88.4 s | 128.1 s | 456.6% | –
45 | Cc1cc(C)c2c(c1O)C(NC(=O)Cn1ccnc1)C(C)(C)C2 (stereo not given) | 71.8% | 76.8 s | 66.4 s | – | –
46 | COc1cccc(N2CCN(CC(=O)NC3c4c(O)c(C)cc(C)c4CC3Cc3ccccc3)CC2)c1 (stereo not given) | 123.1% | – | – | – | –
47 | COc1cccc(N2CCN(C(=O)CNC3c4c(O)c(C)cc(C)c4CC3(C)C)CC2)c1 (stereo not given) | – | 84 s | 111 s | 97.7% | –
48 | Cc1cc(C)c2c(c1O)C(NC(=O)CN1CCCC1)C(C)(C)C2 (stereo not given) | – | 85.8 s | 66.4 s | 134.2% | –
49 | CCCCCCCCCCC(=O)NC1CCc2c(C)cc(C)c(O)c21 (stereo not given) | – | – | – | – | SVT (Mus musculus [5]): 94.5%
50 | CCC(C)c1cc(C)c2c(c1O)C(NC(=O)CN1CCN(c3cccc(Cl)c3)CC1)CC2 (stereo not given) | 144.5% | 90.6 s | 81.9 s | 224.8% | –
51 | Cc1cc(C)c2c(c1O)C(NC(=O)CN1CCSCC1)C(C)(C)C2 (stereo not given) | – | 110.8 s | 119.9 s | 100.8% | –
52 | Cc1cc(C)c2c(c1O)C(NCCN1CCN(c3cccc(Cl)c3)CC1)C(C)(C)C2 (stereo not given) | – | 64.8 s | 59.9 s | 141.3% | –
53 | Cc1cc(C)c2c(c1O)C(NC(=O)CN1CCCC1=O)C(C)(C)C2 (stereo not given) | – | 89.2 s | 88.8 s | 135.3% | –
54 | COc1cccc(N2CCN(CCC(=O)NC3c4c(O)c(C)cc(C)c4CC3(C)C)CC2)c1 (stereo not given) | 91.8% | 98 s | 92.4 s | – | –
55 | Cc1ccc(N2CCN(CC(=O)NC3c4c(O)c(C)cc(C)c4CC3(C)C)CC2)cc1Cl (stereo not given) | 90.5% | 103.9 s | 117.7 s | – | –

Source: ChEMBL document CHEMBL1125278, “Novel cerebroprotective agents with central nervous system stimulating activity. 2. Synthesis and pharmacology of the 1-(acylamino)-7-hydroxyindan derivatives” (1991)
